37 compounds from ChEMBL document CHEMBL1641542, “Structure-activity relationships of 2,4-diphenyl-1H-imidazole analogs as CB2 receptor agonists for the treatment of chronic pain” (Bioorg Med Chem Lett, 2011) can be followed below.

Molecules are shown by their SMILES.

Data set [1] addresses T1, Cannabinoid receptor 1 (Homo sapiens, UniProt P21554). Kind of data set: Agonist activity at human cloned CB1 receptor expressed in CHO cells assessed as inhibition of forskolin-induced cAMP accumulation. It counts as functional, cell-based. On the technique in general: Changes in cAMP serve as a functional read-out for many G protein-coupled receptors.
In data set [2] the target is T2, Cannabinoid receptor 2 (Homo sapiens, UniProt P34972). In words: Agonist activity at human cloned CB2 receptor expressed in CHO cells assessed as inhibition of forskolin-induced cAMP accumulation. It counts as functional, cell-based.
Data set [3] concerns the target T2, Cannabinoid receptor 2. Kind of data set: Agonist activity at human cloned CB2 receptor expressed in CHO cells assessed as inhibition of forskolin-induced cAMP accumulation relative to control. It counts as functional, cell-based.
The nature of data set [4]: AUC (0 to 6 hrs) in rat at 10 mg/kg, po. It counts as ADME, organism-based. Further details: time < 6 hr, dose 10 mg/kg, route oral. The settings on record: plasma.
The target of data set [5] is T1, Cannabinoid receptor 1. In words: Displacement of [3H]-CP55940 from human cloned CB1 receptor expressed in CHO cells. It counts as cell-based. (In general: Loss of bound radioactivity is the signal in a displacement assay; it reports binding, not function.)
In data set [6] the target is T1, Cannabinoid receptor 1. Kind of data set: Agonist activity at human cloned CB1 receptor expressed in CHO cells assessed as inhibition of forskolin-induced cAMP accumulation relative to control. It counts as functional, cell-based.
The target of data set [7] is T2, Cannabinoid receptor 2. In words: Displacement of [3H]-CP55940 from human cloned CB2 receptor expressed in CHO cells. It counts as cell-based.

T1 sequence (P21554 whole entry): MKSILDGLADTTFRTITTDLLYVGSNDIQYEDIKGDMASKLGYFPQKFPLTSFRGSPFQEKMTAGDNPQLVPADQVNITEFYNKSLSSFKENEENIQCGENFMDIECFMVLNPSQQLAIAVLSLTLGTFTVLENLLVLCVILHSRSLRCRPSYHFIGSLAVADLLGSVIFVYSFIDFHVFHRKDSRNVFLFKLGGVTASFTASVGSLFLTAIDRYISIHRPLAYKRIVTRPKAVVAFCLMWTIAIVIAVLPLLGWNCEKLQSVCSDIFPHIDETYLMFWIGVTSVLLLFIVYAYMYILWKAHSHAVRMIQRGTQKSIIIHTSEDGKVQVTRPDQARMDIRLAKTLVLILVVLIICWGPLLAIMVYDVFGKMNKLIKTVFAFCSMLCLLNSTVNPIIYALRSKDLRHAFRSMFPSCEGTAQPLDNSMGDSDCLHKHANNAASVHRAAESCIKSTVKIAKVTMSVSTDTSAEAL
T2 sequence (P34972 whole entry): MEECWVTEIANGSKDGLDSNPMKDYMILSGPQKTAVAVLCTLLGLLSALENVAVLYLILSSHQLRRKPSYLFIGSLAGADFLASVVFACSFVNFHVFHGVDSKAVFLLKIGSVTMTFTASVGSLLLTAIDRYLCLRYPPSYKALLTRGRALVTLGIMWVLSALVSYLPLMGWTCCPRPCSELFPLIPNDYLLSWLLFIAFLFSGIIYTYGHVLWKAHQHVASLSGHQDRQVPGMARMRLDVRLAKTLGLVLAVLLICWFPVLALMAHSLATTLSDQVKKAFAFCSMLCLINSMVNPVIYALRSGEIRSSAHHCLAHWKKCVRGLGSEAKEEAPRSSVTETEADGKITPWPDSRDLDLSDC

Turning to `Clc1cccc(-c2c[nH]c(-c3cccc(CN4CCCCC4)c3)n2)c1`, the EC50 at Cannabinoid receptor 1 [1] amounted to 1050 nM; on Cannabinoid receptor 2 [2], 10 nM. The Emax on Cannabinoid receptor 2 [3] was 114%.

Turning to `FC1(F)CCCN(Cc2cccc(-c3nc(-c4cccc(C(F)(F)F)c4)c[nH]3)c2)C1`, in data set [4], the AUC(0-t) at 6 h was 0.851 µM·h. The EC50 on Cannabinoid receptor 2 [2] was 25 nM. The Emax at Cannabinoid receptor 2 [3] is 98%.

In turn, `FC1(F)CCN(Cc2cccc(-c3nc(-c4cccc(C(F)(F)F)c4)c[nH]3)c2)CC1` yielded an exposure AUC(0-t) at 6 h in data set [4] of 1.11 µM·h. The EC50 on Cannabinoid receptor 1 [1] was 2550 nM; at Cannabinoid receptor 2 [2], 5 nM. In addition, at Cannabinoid receptor 2 [3], the Emax is 100%.

`FC1CCN(Cc2cccc(-c3nc(-c4cccc(Cl)c4)c[nH]3)c2)CC1`: the EC50 on Cannabinoid receptor 1 [1] is 130 nM; on Cannabinoid receptor 2 [2], 8 nM. For the same compound, the Emax on Cannabinoid receptor 2 [3] was found to be 107%.

In turn, `CC1CCCN(Cc2cccc(-c3nc(-c4cccc(C(F)(F)F)c4)c[nH]3)c2)C1` (centres undefined) gave an AUC(0-t) at 6 h in data set [4] of 1.41 µM·h. Moreover, the concentration giving a half-maximal response (EC50) at Cannabinoid receptor 2 [2] stood at 70 nM. The Emax on Cannabinoid receptor 2 [3] came out at 87%.

Turning to `FC(F)(F)c1cccc(-c2c[nH]c(-c3cccc(CN4CCCCC4)c3)n2)c1`, the exposure AUC(0-t) at 6 h in data set [4] is 0.537 µM·h. The EC50 is greater than 10000 nM on Cannabinoid receptor 1 [1] and 14 nM at Cannabinoid receptor 2 [2]. For the same compound, the maximum response (Emax) on Cannabinoid receptor 2 [3] was determined as 104%.

On to `OCC1CCCN(Cc2cccc(-c3nc(-c4cccc(C(F)(F)F)c4)c[nH]3)c2)C1` (centres undefined), for which the EC50 on Cannabinoid receptor 1 [1] was greater than 1000 nM; on Cannabinoid receptor 2 [2], 61 nM. Also, on Cannabinoid receptor 2 [3], the Emax was found to be 91%.

Regarding `COc1ccc(F)c(-c2c[nH]c(-c3cccc(CN4CCOCC4)c3)n2)c1`, the EC50 is 140 nM at Cannabinoid receptor 1 [1] and 4 nM at Cannabinoid receptor 2 [2]. At Cannabinoid receptor 2 [3], the Emax is 109%.

Regarding `O=C(c1ccccc1)n1cc(-c2cccc(C(F)(F)F)c2)nc1-c1cccc(CN2CCOCC2)c1`, at Cannabinoid receptor 2 [2], the EC50 stood at 11 nM. In addition, the Emax on Cannabinoid receptor 2 [3] came out at 101%.

In data set [4], `FC1CCN(Cc2cccc(-c3nc(-c4cccc(C(F)(F)F)c4)c[nH]3)c2)CC1` registered an exposure AUC(0-t) at 6 h of 0.524 µM·h. Also, the EC50 is 2290 nM on Cannabinoid receptor 1 [1] and 9 nM at Cannabinoid receptor 2 [2]. For the same compound, the Emax on Cannabinoid receptor 2 [3] came to 107%.

As to `CC(C)n1cc(-c2cccc(C(F)(F)F)c2)nc1-c1cccc(CN2CCOCC2)c1`, the 50% effective concentration (EC50) on Cannabinoid receptor 1 [1] is greater than 1000 nM; at Cannabinoid receptor 2 [2], 218 nM.

As for `CC1CCN(Cc2cccc(-c3nc(-c4cccc(Cl)c4Cl)c[nH]3)c2)CC1`, the 50% effective concentration (EC50) on Cannabinoid receptor 1 [1] was greater than 10000 nM; on Cannabinoid receptor 2 [2], 25 nM. For the same compound, at Cannabinoid receptor 2 [3], the Emax stood at 107%.

Turning to `FC(F)(F)c1cccc(-c2cn(-c3ccccc3)c(-c3cccc(CN4CCOCC4)c3)n2)c1`, the half-maximal effective concentration (EC50) on Cannabinoid receptor 2 [2] is greater than 1000 nM.

Consider `COc1ccc(F)c(-c2c[nH]c(-c3cccc(CN4CCCCC4)c3)n2)c1`, for which the concentration for a half-maximal effect (EC50) at Cannabinoid receptor 1 [1] was 320 nM; on Cannabinoid receptor 2 [2], 4 nM. The Emax on Cannabinoid receptor 2 [3] turned out to be 108%.

Take `O=S(=O)(c1ccccc1)n1cc(-c2cccc(C(F)(F)F)c2)nc1-c1cccc(CN2CCOCC2)c1`: the concentration for a half-maximal effect (EC50) on Cannabinoid receptor 2 [2] is greater than 1000 nM.

As for `CC(=O)n1cc(-c2cccc(C(F)(F)F)c2)nc1-c1cccc(CN2CCOCC2)c1`, the concentration giving a half-maximal response (EC50) at Cannabinoid receptor 1 [1] is greater than 1000 nM; on Cannabinoid receptor 2 [2] it was 9 nM. Moreover, the maximal response (Emax) at Cannabinoid receptor 2 [3] amounted to 102%.

Take `CCOc1ccc(F)c(-c2c[nH]c(-c3cccc(CN4CCCCC4)c3)n2)c1`: the results for the concentration for a half-maximal effect (EC50) on Cannabinoid receptor 1 [1] and on Cannabinoid receptor 2 [2] were 8500 nM and 87 nM, respectively. Also, the maximal response (Emax) on Cannabinoid receptor 2 [3] came to 102%.

Regarding `COc1ccc(F)c(-c2c[nH]c(-c3cccc(CN4CCC(F)(F)CC4)c3)n2)c1`, the 50% effective concentration (EC50) stood at 25 nM at Cannabinoid receptor 1 [1] and 5 nM on Cannabinoid receptor 2 [2]. Moreover, the maximum response (Emax) at Cannabinoid receptor 2 [3] was 107%.

With `FC1CCCN(Cc2cccc(-c3nc(-c4cccc(C(F)(F)F)c4)c[nH]3)c2)C1` (centres undefined), the AUC(0-t) at 6 h in data set [4] came to 0.682 µM·h. In addition, the EC50 at Cannabinoid receptor 2 [2] is 16 nM. On Cannabinoid receptor 2 [3], the maximal effect (Emax) is 98%.

Regarding `FC1CCN(Cc2cccc(-c3nc(-c4cccc(Cl)c4Cl)c[nH]3)c2)CC1`, the EC50 on Cannabinoid receptor 1 [1] stood at 1290 nM; at Cannabinoid receptor 2 [2], 5 nM. Moreover, the Emax on Cannabinoid receptor 2 [3] was 119%.

Take `COc1ccc(F)c(-c2c[nH]c(-c3cccc(CN4CCC(F)CC4)c3)n2)c1`: the values for the concentration for a half-maximal effect (EC50) at Cannabinoid receptor 1 [1] and on Cannabinoid receptor 2 [2] were 87 nM and 5 nM, respectively. Also, on Cannabinoid receptor 2 [3], the maximum response (Emax) came to 106%.

`FC(F)(F)c1cccc(-c2cn(Cc3ccccc3)c(-c3cccc(CN4CCOCC4)c3)n2)c1`: the concentration for a half-maximal effect (EC50) at Cannabinoid receptor 1 [1] and at Cannabinoid receptor 2 [2] was greater than 1000 nM throughout.

`CC1CN(Cc2ccccc2-c2nc(-c3cccc(C(F)(F)F)c3)c[nH]2)CCO1` (centres undefined): the concentration giving a half-maximal response (EC50) on Cannabinoid receptor 1 [1] was greater than 10000 nM; on Cannabinoid receptor 2 [2] it was 510 nM. The Emax on Cannabinoid receptor 2 [3] is 102%.

Regarding `C[C@H]1COCCN1Cc1cccc(-c2nc(-c3cccc(C(F)(F)F)c3)c[nH]2)c1`, the concentration giving a half-maximal response (EC50) on Cannabinoid receptor 2 [2] was 169 nM. Moreover, the Emax at Cannabinoid receptor 2 [3] worked out at 78%.

For `FC(F)(F)c1cccc(-c2cn(CC3CC3)c(-c3cccc(CN4CCOCC4)c3)n2)c1`, the EC50 on Cannabinoid receptor 1 [1] was greater than 1000 nM; on Cannabinoid receptor 2 [2] it was 412 nM. Further, the maximum response (Emax) at Cannabinoid receptor 2 [3] was 68%.

On to `Clc1cccc(-c2c[nH]c(-c3cccc(CN4CCCCC4)c3)n2)c1Cl`, for which the EC50 at Cannabinoid receptor 1 [1] came to 12600 nM; at Cannabinoid receptor 2 [2], 8 nM. For the same compound, the maximal effect (Emax) at Cannabinoid receptor 2 [3] worked out at 115%.

With `CC1CN(Cc2cccc(-c3nc(-c4cccc(Cl)c4)c[nH]3)c2)CCO1` (centres undefined), the figures for the EC50 at Cannabinoid receptor 1 [1] and on Cannabinoid receptor 2 [2] were 3250 nM and 14 nM, respectively. Further, the Emax at Cannabinoid receptor 2 [3] came to 102%.

Turning to `CC1CN(Cc2cccc(-c3nc(-c4cccc(C(F)(F)F)c4)c[nH]3)c2)CCO1` (centres undefined), the AUC(0-t) at 6 h in data set [4] came out at 1.99 µM·h. The EC50 was greater than 10000 nM at Cannabinoid receptor 1 [1] and 25 nM at Cannabinoid receptor 2 [2]. Also, the maximal response (Emax) on Cannabinoid receptor 2 [3] came to 97%.

For the compound `O[C@H]1CCCN(Cc2cccc(-c3nc(-c4cccc(C(F)(F)F)c4)c[nH]3)c2)C1`, the results for the EC50 on Cannabinoid receptor 1 [1] and at Cannabinoid receptor 2 [2] were greater than 10000 nM and 113 nM, respectively. Besides, the Emax at Cannabinoid receptor 2 [3] is 92%.

In the case of `FC1CCN(Cc2ccccc2-c2nc(-c3cccc(C(F)(F)F)c3)c[nH]2)CC1`, the EC50 at Cannabinoid receptor 1 [1] was greater than 10000 nM; on Cannabinoid receptor 2 [2] it was 130 nM. The Emax at Cannabinoid receptor 2 [3] came out at 108%.

In the case of `FC1CCN(Cc2cccc(-c3nc(-c4ccc(Cl)cc4Cl)c[nH]3)c2)CC1`, the concentration giving a half-maximal response (EC50) at Cannabinoid receptor 1 [1] stood at 2450 nM; at Cannabinoid receptor 2 [2] it was 10 nM. Further, the Emax on Cannabinoid receptor 2 [3] is 107%.

On to `COc1ccc(-c2c[nH]c(-c3cccc(CN4CCC(F)(F)CC4)c3)n2)c(F)c1`, for which the EC50 at Cannabinoid receptor 1 [1] amounted to 39 nM; on Cannabinoid receptor 2 [2], 3 nM. Also, the maximal effect (Emax) at Cannabinoid receptor 2 [3] turned out to be 107%.

With `Clc1ccc(-c2c[nH]c(-c3cccc(CN4CCCCC4)c3)n2)c(Cl)c1`, the 50% effective concentration (EC50) at Cannabinoid receptor 1 [1] amounted to 1800 nM; on Cannabinoid receptor 2 [2] it was 24 nM. Further, the Emax on Cannabinoid receptor 2 [3] came to 104%.

Consider `CC1CCN(Cc2cccc(-c3nc(-c4cccc(C(F)(F)F)c4)c[nH]3)c2)CC1`, for which the exposure AUC(0-t) at 6 h in data set [4] turned out to be 0.881 µM·h. For the same compound, the 50% effective concentration (EC50) was greater than 10000 nM on Cannabinoid receptor 1 [1] and 21 nM at Cannabinoid receptor 2 [2]. The Emax at Cannabinoid receptor 2 [3] came to 97%.

For the compound `FC(F)(F)c1cccc(-c2c[nH]c(-c3cccc(CN4CCOCC4)c3)n2)c1`, the AUC(0-t) at 6 h in data set [4] was determined as 0.866 µM·h. Also, the results for the Ki at Cannabinoid receptor 1 [5] and on Cannabinoid receptor 2 [7] were 1000 nM and 42 nM, respectively. Further, the EC50 at Cannabinoid receptor 1 [1] is greater than 1000 nM; on Cannabinoid receptor 2 [2] it was 8 nM. For the same compound, the Emax turned out to be 67% on Cannabinoid receptor 1 [6] and 80% on Cannabinoid receptor 2 [3].

In data set [4], `Brc1cccc(-c2c[nH]c(-c3cccc(CN4CCOCC4)c3)n2)c1` had an exposure AUC(0-t) at 6 h of 0.158 µM·h. For the same compound, the figures for the concentration giving a half-maximal response (EC50) at Cannabinoid receptor 1 [1] and at Cannabinoid receptor 2 [2] were 665 nM and 5 nM, respectively. The maximum response (Emax) at Cannabinoid receptor 2 [3] amounted to 112%.

`FC(F)(F)c1cccc(-c2c[nH]c(-c3cccc(CN4CCSCC4)c3)n2)c1` had an area under the curve AUC(0-t) at 6 h in data set [4] of 0.042 µM·h. Besides, the 50% effective concentration (EC50) on Cannabinoid receptor 1 [1] was greater than 1000 nM; at Cannabinoid receptor 2 [2] it was 6 nM. Also, the maximal effect (Emax) on Cannabinoid receptor 2 [3] was 100%.

What is called EC50 is the midpoint of the concentration-response curve. Broadly, the Emax is the maximal effect, on the per cent scale that the assay sets. In general, AUC(0-t) refers to exposure summed from dosing to a finite time, without extrapolation to infinity. One may read the Ki as a dissociation constant, usually derived from enzyme kinetics or from competition with a known ligand.
